Experimental findings from US8772318B2, “Methods and compositions related to targeting monoacylglycerol lipase” (The Scripps Research Institute, priority 2008, dated 2014) are described below.

Test [1] is described as follows: Bar test (catalepsy, hyperreflexia). The format is in vivo, mouse. Particulars: rimonabant 3 mg/kg before JZL184 16 mg/kg. As for the experimental part: (§1) Behavioral Studies. […] A total of four groups of mice were used, with a sample size of 14 mice/group. Before injections, the mice were evaluated for baseline responses in the tail immersion test, as well for rectal temperatures. […] For determining hypomotility each mouse was placed in a clear Plexiglas box (42.7×21.0×20.4 cm) for a 10 min assessment period and Anymaze (Stoelting, Wood Dale, Ill.) software was used to determine the percentage of time spent immobile. Subjects were assessed for nociception in the tail immersion assay. Each mouse was placed head first into a small bag fabricated from absorbent under pads (VWR Scientific Products; 4 cm diameter, 11 cm length) with the tail out of the bag. The experimenter gently held the mouse and immersed approximately 1 cm of the tip of the tail into a water bath maintained at 56.0° C. The latency for the animal to withdraw its tail from the water within a 10 s cutoff time was scored. Catalepsy was evaluated using the bar test, in which the front paws of each subject were placed on a rod (0.75 cm diameter) that was elevated 4.5 cm above the surface. Mice that remained motionless with their paws on the bar for 10 s (with the exception of respiratory movements) were scored as cataleptic. […] Rectal temperature was determined by inserting a thermocouple probe 2.0 cm into the rectum and temperature was obtained from a telethermometer.

Test [2] can be described thus: Rectal temperature (hypothermia). The format is in vivo, mouse. Particulars: rimonabant 3 mg/kg before JZL184 16 mg/kg. How it is done: as §1
The nature of test [3]: Tail immersion assay of thermal pain sensation. The format is in vivo, mouse. Particulars: rimonabant 3 mg/kg before JZL184 16 mg/kg. As for the experimental part: as §1
The nature of test [4]: Acetic acid abdominal stretching (writhing) assay. The format is in vivo, mouse. Particulars: rimonabant 3 mg/kg before JZL184 16 mg/kg. As for the experimental part:
A second group of naïve subjects (n=10-11 mice/group) were evaluated in the acetic acid stretching assay. […] Acetic acid (0.6%) was injected intraperitoneally in a volume of 10 μl/g body weight 120 min after the second injection. The number of stretches (constriction of abdomen, turning of trunk (twist) and extension of the body and hind limbs) per mouse was counted during a 20-min period after the administration of acetic acid.
On the technique in general: Writhing tests count abdominal constrictions after an irritant is injected.

Test [5] concerns human cancer cell lines (C8161, SKOV3, 231MFP, MUM2C, OVCAR3). Kind of test: Lipid measurements in cancer cells. The class given is cell-based. The note with it: antagonist 1 μM, 4 hr. As for the experimental part: Pharmacological inhibition of MAGL in cancer cells. Pharmacological inhibition studies were conducted as described previously (Chiang et al., Chem. Biol. 13:1041-1050, 2006). Cancer cells were maintained in RPMI medium 1640 with 10% (v/v) fetal calf serum at 37° C. in a humidified atmosphere of 5% CO2/95% air. At 80% confluency, cells were trypsinized and counted using a hemocytometer, and 1×10^6 cells were plated in 6 cm dishes (subconfluent). […] After incubation for 4 hr, the cells were harvested and analyzed by ABPP or LC-MS.
Lipid measurements in cancer cells. Lipid measurements were conducted similarly to protocols described previously (Chiang et al., 2006; supra). Cancer cells were grown in serum-free media for 4 hrs to minimize the contribution of serum-derived lipids to the cellular profiles. The cells (1×10^6 cells/6 cm dish, 80% confluency) were washed with twice with phosphate buffer saline (PBS), isolated by centrifugation at 1,400×g, and dounce-homogenized in 4 ml of a 2:1:1 mixture of chloroform:methanol:Tris buffer. Samples were homogenized in the presence of the following synthetic standards: C12:0 MAGE (10 nmol), C15:0 FFA (10 nmol). Organic and aqueous layers were separated by centrifugation at 2000×g for 5 min and the organic layer was collected. The aqueous layer was acidified (for metabolites such as LPA) by adding 5% formic acid, followed by the addition of 2 ml chloroform. The mixture was vortexed, and the organic layers were combined, dried down under N2 and dissolved in 100 μl chloroform, of which 30 μl was analyzed by LC-MS.
LC-MS analysis was performed by using an Agilent 1100 LC-MSD SL instrument. […] Mobile phase A was composed of a 95:5 ratio of water:methanol, and mobile phase B consisted of 2-propanol, methanol, and water in a 60:35:5 ratio. Solvent modifiers such as 0.1% formic acid and 0.1% ammonium hydroxide were used to assist ion formation as well as to improve the LC resolution in both positive and negative ionization modes, respectively. The flow rate for each run started at 0.1 ml/min for 5 min, to alleviate backpressure associated with injecting chloroform. The gradient started at 0% B and increased linearly to 100% B over the course of 45 min with a flow rate of 0.4 ml/min, followed by an isocratic gradient of 100% B for 17 min at 0.5 ml/min before equilibrating for 8 min at 0% B with a flow rate of 0.5 ml/min. MS analysis was performed with an electrospray ionization (ESI) source. The capillary voltage was set to 3.0 kV, and the fragmentor voltage was set to 100 V. The drying gas temperature was 350° C., the drying gas flow rate was 10 L/min, and the nebulizer pressure was 35 psi.
Lipidomic analysis was performed in both targeted and untargeted mode by LC-MS analysis. Standard lipid classes were quantitated by targeting using selected ion monitoring (SIM) (except for very high-abundance metabolites which were quantitated by untargeted analysis) and identities of metabolites were confirmed by coelution of metabolites with their respective standards and mass accuracy to within 10 ppm as determined with an accurate mass Agilent 6520 Accurate Mass QTOF-MS-MS. These lipids were quantified by measuring the area under the peak and were normalized to an internal standard (C12:0 MAGE in positive mode or C15:0 FFA in negative mode). […]

For test [6] the test system is unchanged. The experiment in a line: Cell migration assay (Transwell). The note with it: antagonist 1 μM, 4 hr. The format is cell-based. How it is done: Cell migration, cell survival, and invasion studies. Migration assays were performed in Transwell chambers (Corning) with 8 μm pore-sized membranes coated with 10 μg/ml collagen for 4 h at 37° C. A total of 24 hr before the start of the migration assay, cancer cell lines were plated at a concentration of 1×10^6 cells per 6 cm dish. At the start of the migration assay, cells were harvested by washing two times with PBS and were then serum starved in serum-free media for 4 hr. Inhibitor, lipid or vehicle (0.1% DMSO) were preincubated with the cells during this 4 h time. Serum-starved cells were trypsinized, spun at 1400×g for 3 min, resuspended, and counted. 50,000 cells were seeded in the upper chamber of the transwells in 200 μl serum-free media (containing inhibitor, lipid or vehicle). Inhibitor, lipid or vehicle was also added to the lower chamber, and cells were allowed to migrate for 5 h (for C8161 and 231MFP cells) or 20 hr (SKOV3, MUM2C and OVCAR3 cells). The filters were then fixed and stained with Diff-Quik (Dade Behring). Cells that had not migrated through the chamber were removed with a cotton ball. The cells that migrated were counted at a magnification of 400×, and 4 fields were independently counted from each migration chamber. An average of cells in 4 fields for one migration chamber represents n=1.

Test [7] can be described thus: Locomotor activity (hypomotility). The format is in vivo, mouse. As for the experimental part:
as §1

For `Cc1c(C(=O)NN2CCCCC2)nn(-c2ccc(Cl)cc2Cl)c1-c1ccc(Cl)cc1` [rimonabant], the “effect of rimonabant on JZL184 hyperreflexia effect” value in test [1] was “completely blocked”. Moreover, the “effect of rimonabant on JZL184 hypothermic effect” value in test [2] is on record as “completely blocked”. Also, in test [3], the “effect of rimonabant pre-treatment on JZL184 analgesia, tail immersion” value is “blocked”. Besides, in test [4], the “effect of rimonabant pre-treatment on JZL184 analgesia, acetic acid writhing” value is “blocked”. The “FFA levels in shControl and shMAGL cancer cells” value in test [5] was “unchanged”. For the same molecule, the “migratory defect in shMAGL cancer cells” value in test [6] was “not rescued”. Moreover, the “movement, rimonabant on its own” value in test [7] (rimonabant 3 mg/kg) is recorded as “significant reductions in movement”. For the same molecule, the “effect of rimonabant on JZL184-induced immobility” value in test [7] (rimonabant 3 mg/kg before JZL184 16 mg/kg) is given as “partial blockade”.
